In ChEMBL document CHEMBL5104131, “Pyrimidine-conjugated fluoroquinolones as new potential broad-spectrum antibacterial agents” (Bioorg Med Chem Lett, 2022):
In brackets after ≈: the same amount, converted by molar mass. Activity calls are given as the source filed them. The rule behind the calls is not given here.

How the values were obtained:
Pseudomonas aeruginosa [1] = experiment: Antibacterial activity against Pseudomonas aeruginosa ATCC 27853 assessed as bacterial growth inhibition by serial dilution method; format: functional
Staphylococcus aureus [2] = experiment: Antibacterial activity against Staphylococcus aureus ATCC 25923 assessed as bacterial growth inhibition by serial dilution method; format: functional
Acinetobacter baumannii = experiment: Antibacterial activity against Acinetobacter baumannii assessed as bacterial growth inhibition by serial dilution method; format: functional
Staphylococcus aureus [3] = experiment: Antibacterial activity against Staphylococcus aureus ATCC 29213 assessed as bacterial growth inhibition by serial dilution method; format: functional
Staphylococcus aureus [4] = experiment: Antibacterial activity against Staphylococcus aureus assessed as bacterial growth inhibition by serial dilution method; format: functional
Pseudomonas aeruginosa [5] = experiment: Antibacterial activity against Pseudomonas aeruginosa assessed as bacterial growth inhibition by serial dilution method; format: functional
Escherichia coli [6] = experiment: Antibacterial activity against Escherichia coli ATCC 25922 assessed as bacterial growth inhibition by serial dilution method; format: functional
Escherichia coli [7] = experiment: Antibacterial activity against Escherichia coli assessed as bacterial growth inhibition by serial dilution method; format: functional
Klebsiella pneumoniae = experiment: Antibacterial activity against Klebsiella pneumoniae assessed as bacterial growth inhibition by serial dilution method; format: functional
Staphylococcus aureus [8] = experiment: Antibacterial activity against methicillin-resistant Staphylococcus aureus N315 assessed as bacterial growth inhibition by serial dilution method; format: functional
Enterococcus faecalis [9] = experiment: Antibacterial activity against Enterococcus faecalis assessed as bacterial growth inhibition by serial dilution method; format: functional
Enterococcus faecalis [10] = experiment: Bactericidal activity against Enterococcus faecalis assessed as log reduction in bacterial colony count at 4 times MIC measured after 6 hrs; format: functional
Enterococcus faecalis [11] = experiment: Bactericidal activity against Enterococcus faecalis assessed as log reduction in bacterial colony count at 1 times MIC measured after 6 hrs; format: functional
[12] = Induction of intracellular ROS accumulation in Enterococcus faecalis assessed as fold increase in fluorescence intensity at 8 times MIC by DCFH-DA dye based fluorescence assay; format: functional
Calf thymus DNA [13] = experiment: Binding affinity to calf thymus DNA assessed as DNA-compound complex formation by measuring hyperchromicity by UV-Vis spectrophotometric analysis; format: tissue-based; settings: Bos taurus
Calf thymus DNA [14] = experiment: Binding affinity to calf thymus DNA assessed as reduction in acridine orange-DNA complex formation by competitive binding assay; settings: Bos taurus
Calf thymus DNA [15] = experiment: Binding affinity to calf thymus DNA assessed as binding constant by UV-Vis spectrophotometric analysis; settings: Bos taurus
[16] = Cytotoxicity against human HaCaT cells assessed as cell viability at 12.5 ug/ml by CCK-8 assay relative to control; format: toxicity, cell-based; settings: at 12.5 µg/mL, read-out: Activity
Enterococcus faecalis [17] = experiment: Potency index, ratio of ciprofloxacin MIC to test compound MIC for antibacterial activity against Enterococcus faecalis assessed as bacterial growth inhibition by serial dilution method; format: functional
Staphylococcus aureus [18] = experiment: Potency index, ratio of norfloxacin MIC to test compound MIC for antibacterial activity against Staphylococcus aureus ATCC 29213 assessed as bacterial growth inhibition by serial dilution method; format: functional
Aspergillus fumigatus = experiment: Antifungal activity against Aspergillus fumigatus assessed as inhibition of fungal growth; format: functional
Calf thymus DNA [19] = experiment: Binding affinity to calf thymus DNA assessed as red shift in absorption peak by UV-Vis spectrophotometric analysis; settings: Bos taurus
Staphylococcus aureus [20] = experiment: Potency index, ratio of norfloxacin MIC to test compound MIC for antibacterial activity against Staphylococcus aureus ATCC 25923 assessed as bacterial growth inhibition by serial dilution method; format: functional
[21] = Cytotoxicity against human HaCaT cells assessed as cell viability at 50 ug/ml by CCK-8 assay relative to control; format: toxicity, cell-based; settings: at 50 µg/mL, read-out: Activity
Enterococcus faecalis [22] = experiment: Potency index, ratio of norfloxacin MIC to test compound MIC for antibacterial activity against Enterococcus faecalis assessed as bacterial growth inhibition by serial dilution method; format: functional
Enterococcus faecalis [23] = experiment: Inhibition of biofilm formation in Enterococcus faecalis at 2 ug/ml incubated for 24 hrs by crystal violet staining based analysis relative to control; format: functional
Staphylococcus aureus [24] = experiment: Potency index, ratio of norfloxacin MIC to test compound MIC for antibacterial activity against methicillin-resistant Staphylococcus aureus N315 assessed as bacterial growth inhibition by serial dilution method; format: functional
Staphylococcus aureus [25] = experiment: Potency index, ratio of ciprofloxacin MIC to test compound MIC for antibacterial activity against methicillin-resistant Staphylococcus aureus N315 assessed as bacterial growth inhibition by serial dilution method; format: functional

SMILES | MIC (Pseudomonas aeruginosa [1]) [µg/mL] | MIC (Staphylococcus aureus [2]) [µg/mL] | MIC (Acinetobacter baumannii) [µg/mL] | MIC (Staphylococcus aureus [3]) [µg/mL] | MIC (Staphylococcus aureus [4]) [µg/mL] | MIC (Pseudomonas aeruginosa [5]) [µg/mL] | MIC (Escherichia coli [6]) [µg/mL] | MIC (Escherichia coli [7]) [µg/mL] | MIC (Klebsiella pneumoniae) [µg/mL] | MIC (Staphylococcus aureus [8]) [µg/mL] | MIC (Enterococcus faecalis [9]) [µg/mL] | further results
Cc1cnc(N2CCN(c3cc4c(cc3F)c(=O)c(C(=O)O)cn4C3CC3)CC2)nc1 | 256 (≈ 605 µM) | 2 (≈ 4.72 µM) | 128 (≈ 302 µM) | 64 (≈ 151 µM) | 128 (≈ 302 µM) | 2 (≈ 4.72 µM) | 8 (≈ 18.9 µM) | 64 (≈ 151 µM) | > 256 | 256 (≈ 605 µM) | 4 (≈ 9.45 µM) | 
CCn1cc(C(=O)O)c(=O)c2cc(F)c(N3CCN(c4nccc(N)n4)CC3)cc21 | 0.5 (≈ 1.21 µM) | 0.5 (≈ 1.21 µM) | 4 (≈ 9.7 µM) | 0.5 (≈ 1.21 µM) | 1 (≈ 2.42 µM) | 0.25 (≈ 0.606 µM) | 16 (≈ 38.8 µM) | 4 (≈ 9.7 µM) | 0.5 (≈ 1.21 µM) | 1 (≈ 2.42 µM) | 0.25 (≈ 0.606 µM) | log(activity) (Enterococcus faecalis [10]): 3.5; log(activity) (Enterococcus faecalis [11]): 2.5; fold change (FC) [12]: 2.5; Activity (Calf thymus DNA [13]): Active; Activity (Calf thymus DNA [14]): Active; K (Calf thymus DNA [15]): 1.01 10^5L/mol; viability at 12.5 ug/ml [16]: > 90%; Ratio (Enterococcus faecalis [17]): 4; Ratio (Staphylococcus aureus [18]): 8; MIC (Aspergillus fumigatus): 2 µg/mL (≈ 4.85 µM); Activity (Calf thymus DNA [19]): Active; Ratio (Staphylococcus aureus [20]): 4; viability at 50 ug/ml [21]: 70%; Ratio (Enterococcus faecalis [22]): 16; inhibition at 2 µg/mL (Enterococcus faecalis [23]): 53.9%
O=C(O)c1cn(C2CC2)c2cc(N3CCN(c4nccc(C(F)(F)F)n4)CC3)c(F)cc2c1=O | 128 (≈ 268 µM) | 128 (≈ 268 µM) | > 256 | 64 (≈ 134 µM) | 128 (≈ 268 µM) | 64 (≈ 134 µM) | 32 (≈ 67 µM) | 128 (≈ 268 µM) | 128 (≈ 268 µM) | 64 (≈ 134 µM) | 8 (≈ 16.8 µM) | 
CCn1cc(C(=O)O)c(=O)c2cc(F)c(N3CCN(c4nccc(C)n4)CC3)cc21 | 16 (≈ 38.9 µM) | 4 (≈ 9.72 µM) | 256 (≈ 622 µM) | 16 (≈ 38.9 µM) | 4 (≈ 9.72 µM) | 128 (≈ 311 µM) | 1 (≈ 2.43 µM) | 64 (≈ 156 µM) | 4 (≈ 9.72 µM) | 32 (≈ 77.8 µM) | 1 (≈ 2.43 µM) | 
CCn1cc(C(=O)O)c(=O)c2cc(F)c(N3CCN(c4nccc(C(F)(F)F)n4)CC3)cc21 | > 256 | 256 (≈ 550 µM) | 128 (≈ 275 µM) | 128 (≈ 275 µM) | > 256 | 128 (≈ 275 µM) | 256 (≈ 550 µM) | > 256 | 128 (≈ 275 µM) | > 256 | 64 (≈ 138 µM) | 
CCn1cc(C(=O)O)c(=O)c2cc(F)c(N3CCN(c4ncc(C)cn4)CC3)cc21 | 128 (≈ 311 µM) | 64 (≈ 156 µM) | 128 (≈ 311 µM) | 4 (≈ 9.72 µM) | 4 (≈ 9.72 µM) | 4 (≈ 9.72 µM) | 2 (≈ 4.86 µM) | 16 (≈ 38.9 µM) | 2 (≈ 4.86 µM) | 8 (≈ 19.4 µM) | 2 (≈ 4.86 µM) | MIC (Aspergillus fumigatus): 2 µg/mL (≈ 4.86 µM)
O=C(O)c1cn(C2CC2)c2cc(N3CCN(c4ncc(F)cn4)CC3)c(F)cc2c1=O | 256 (≈ 599 µM) | 8 (≈ 18.7 µM) | > 256 | 32 (≈ 74.9 µM) | 8 (≈ 18.7 µM) | 64 (≈ 150 µM) | 8 (≈ 18.7 µM) | 128 (≈ 299 µM) | 128 (≈ 299 µM) | 1 (≈ 2.34 µM) | 8 (≈ 18.7 µM) | Ratio (Staphylococcus aureus [24]): 8; Ratio (Staphylococcus aureus [25]): 2
CCn1cc(C(=O)O)c(=O)c2cc(F)c(N3CCNCC3)cc21 [NORFLOXACIN] | 4 (≈ 12.5 µM) | 2 (≈ 6.26 µM) | 2 (≈ 6.26 µM) | 4 (≈ 12.5 µM) | 4 (≈ 12.5 µM) | 4 (≈ 12.5 µM) | 8 (≈ 25.1 µM) | 8 (≈ 25.1 µM) | 4 (≈ 12.5 µM) | 8 (≈ 25.1 µM) | 4 (≈ 12.5 µM) | 
O=C(O)c1cn(C2CC2)c2cc(N3CCN(c4ncc(Br)cn4)CC3)c(F)cc2c1=O | 32 (≈ 65.5 µM) | 16 (≈ 32.8 µM) | 32 (≈ 65.5 µM) | 8 (≈ 16.4 µM) | 16 (≈ 32.8 µM) | 16 (≈ 32.8 µM) | 128 (≈ 262 µM) | 64 (≈ 131 µM) | 128 (≈ 262 µM) | 128 (≈ 262 µM) | 128 (≈ 262 µM) | 
CCn1cc(C(=O)O)c(=O)c2cc(F)c(N3CCN(c4ncc(Br)cn4)CC3)cc21 | 64 (≈ 134 µM) | 64 (≈ 134 µM) | 64 (≈ 134 µM) | 64 (≈ 134 µM) | 8 (≈ 16.8 µM) | 8 (≈ 16.8 µM) | 128 (≈ 269 µM) | 64 (≈ 134 µM) | 256 (≈ 537 µM) | 128 (≈ 269 µM) | 64 (≈ 134 µM) | 
